Measurements from ChEMBL document CHEMBL6121038, “Design and Synthesis of Hederagenin Derivatives for the Treatment of Sepsis by Targeting TAK1 and Regulating the TAK1-NF-κB/MAPK Signaling” (J Med Chem, 2025).

Assays:
RAW264.7 [1] = assay: Antiinflammatory activity in LPS-induced mouse RAW264.7 cells assessed as inhibition of IL-6 level at 20 uM incubated for 24 hrs by ELISA method relative to control; assay type: functional
RAW264.7 [2] = assay: Antiinflammatory activity in LPS-induced mouse RAW264.7 cells assessed as inhibition of TNF-alpha level at 20 uM incubated for 24 hrs by ELISA method relative to control; assay type: functional
RAW264.7 [3] = assay: Cytotoxicity against mouse RAW264.7 cells assessed as cell viability at 40 uM measured after 24 hrs by MTT assay; assay type: toxicity, cell-based; details: raw264.7, 24 h

| SMILES | inhibition at 20 µM (RAW264.7 [1]) [%] | inhibition at 20 µM (RAW264.7 [2]) [%] | Activity (RAW264.7 [3]) |
| --- | --- | --- | --- |
| CCOC(=O)c1noc2c1C[C@@]1(C)[C@@H](CC[C@]3(C)[C@@H]1CC=C1[C@@H]4CC(C)(C)CC[C@]4(C(=O)OCc4ccccc4)CC[C@]13C)[C@]2(C)COC(=O)[C@H](CCSC)NC(=O)OC(C)(C)C | 11.7 | 15.3 | Non-toxic |
| CCOC(=O)c1noc2c1C[C@@]1(C)[C@@H](CC[C@]3(C)[C@@H]1CC=C1[C@@H]4CC(C)(C)CC[C@]4(C(=O)OCc4ccccc4)CC[C@]13C)[C@]2(C)COC(=O)c1ccccc1C(=O)N[C@@H](CCC(=O)OC)C(=O)OC | 8.65 | 14.8 | Non-toxic |
| CCOC(=O)c1noc2c1C[C@@]1(C)[C@@H](CC[C@]3(C)[C@@H]1CC=C1[C@@H]4CC(C)(C)CC[C@]4(C(=O)OCc4ccccc4)CC[C@]13C)[C@]2(C)COC(=O)CCSSCCC(=O)N[C@@H](CC(=O)OC)C(=O)OC | 6.08 | 7.53 | Non-toxic |
| CCOC(=O)c1noc2c1C[C@@]1(C)[C@@H](CC[C@]3(C)[C@@H]1CC=C1[C@@H]4CC(C)(C)CC[C@]4(C(=O)OCc4ccccc4)CC[C@]13C)[C@]2(C)COC(=O)c1cnccn1 | 5.92 | 8.27 | Non-toxic |
| CCOC(=O)c1noc2c1C[C@@]1(C)[C@@H](CC[C@]3(C)[C@@H]1CC=C1[C@@H]4CC(C)(C)CC[C@]4(C(=O)OCc4ccccc4)CC[C@]13C)[C@]2(C)COC(=O)CCC(=O)N[C@@H](CC(C)C)C(=O)OC | 25.7 | 33.1 | Non-toxic |
| CCOC(=O)c1noc2c1C[C@@]1(C)[C@@H](CC[C@]3(C)[C@@H]1CC=C1[C@@H]4CC(C)(C)CC[C@]4(C(=O)OCc4ccccc4)CC[C@]13C)[C@]2(C)COC(=O)CCC(=O)N1CCN(C(C)C)CC1 | 68.6 | 78.1 | Non-toxic |
| CCOC(=O)c1noc2c1C[C@@]1(C)[C@@H](CC[C@]3(C)[C@@H]1CC=C1[C@@H]4CC(C)(C)CC[C@]4(C(=O)OCc4ccccc4)CC[C@]13C)[C@]2(C)COC(=O)CCn1cccc1 | 46.2 | 52.5 | Non-toxic |
| CCOC(=O)c1noc2c1C[C@@]1(C)[C@@H](CC[C@]3(C)[C@@H]1CC=C1[C@@H]4CC(C)(C)CC[C@]4(C(=O)OCc4ccccc4)CC[C@]13C)[C@]2(C)COC(=O)CCC(=O)N1CCN(CC)CC1 | 66.3 | 75.4 | Non-toxic |
| CCOC(=O)c1noc2c1C[C@@]1(C)[C@@H](CC[C@]3(C)[C@@H]1CC=C1[C@@H]4CC(C)(C)CC[C@]4(C(=O)OCc4ccccc4)CC[C@]13C)[C@]2(C)COC(=O)[C@H](Cc1ccccc1)NC(=O)OC(C)(C)C | 44.9 | 59.3 | Non-toxic |
| CCOC(=O)c1noc2c1C[C@@]1(C)[C@@H](CC[C@]3(C)[C@@H]1CC=C1[C@@H]4CC(C)(C)CC[C@]4(C(=O)OCc4ccccc4)CC[C@]13C)[C@]2(C)COC(=O)c1ccccc1C(=O)N1CCN(C(C)C)CC1 | 11.4 | 22.9 | Non-toxic |
| CCOC(=O)c1noc2c1C[C@@]1(C)[C@@H](CC[C@]3(C)[C@@H]1CC=C1[C@@H]4CC(C)(C)CC[C@]4(C(=O)OCc4ccccc4)CC[C@]13C)[C@]2(C)COC(=O)CCC(=O)N[C@@H](CC(=O)OC)C(=O)OC | 37.6 | 54.3 | Non-toxic |
| CCOC(=O)c1noc2c1C[C@@]1(C)[C@@H](CC[C@]3(C)[C@@H]1CC=C1[C@@H]4CC(C)(C)CC[C@]4(C(=O)OCc4ccccc4)CC[C@]13C)[C@]2(C)COC(=O)CCC(=O)N[C@@H](Cc1ccccc1)C(=O)OC | 25 | 31.7 | Non-toxic |
| CCOC(=O)c1noc2c1C[C@@]1(C)[C@@H](CC[C@]3(C)[C@@H]1CC=C1[C@@H]4CC(C)(C)CC[C@]4(C(=O)OCc4ccccc4)CC[C@]13C)[C@]2(C)COC(=O)CCC(=O)N[C@@H](CCC(=O)OC)C(=O)OC | 22 | 33.6 | Non-toxic |
| CCOC(=O)c1noc2c1C[C@@]1(C)[C@@H](CC[C@]3(C)[C@@H]1CC=C1[C@@H]4CC(C)(C)CC[C@]4(C(=O)OCc4ccccc4)CC[C@]13C)[C@]2(C)COC(=O)CCSSCCC(=O)N1CCN(CC)CC1 | 26.8 | 22.7 |  |
| CCOC(=O)c1noc2c1C[C@@]1(C)[C@@H](CC[C@]3(C)[C@@H]1CC=C1[C@@H]4CC(C)(C)CC[C@]4(C(=O)OCc4ccccc4)CC[C@]13C)[C@]2(C)COC(=O)CCc1c[nH]c2ccccc12 | 18.9 | 15.8 | Non-toxic |
| CCOC(=O)c1noc2c1C[C@@]1(C)[C@@H](CC[C@]3(C)[C@@H]1CC=C1[C@@H]4CC(C)(C)CC[C@]4(C(=O)OCc4ccccc4)CC[C@]13C)[C@]2(C)COC(=O)CCC(=O)N1CCCCC1 | 50.6 | 61 | Non-toxic |
| CCOC(=O)c1noc2c1C[C@@]1(C)[C@@H](CC[C@]3(C)[C@@H]1CC=C1[C@@H]4CC(C)(C)CC[C@]4(C(=O)OCc4ccccc4)CC[C@]13C)[C@]2(C)COC(=O)[C@H](CC(C)C)NC(=O)OC(C)(C)C | 4.25 | 7.45 | Non-toxic |
| CCOC(=O)c1noc2c1C[C@@]1(C)[C@@H](CC[C@]3(C)[C@@H]1CC=C1[C@@H]4CC(C)(C)CC[C@]4(C(=O)OCc4ccccc4)CC[C@]13C)[C@]2(C)COC(=O)c1cc2ccccc2[nH]1 | 15 | 9.1 | Non-toxic |
| CCOC(=O)c1noc2c1C[C@@]1(C)[C@@H](CC[C@]3(C)[C@@H]1CC=C1[C@@H]4CC(C)(C)CC[C@]4(C(=O)OCc4ccccc4)CC[C@]13C)[C@]2(C)COC(=O)CCSSCCC(=O)N1CCCCC1 | 24.5 | 14.2 | Non-toxic |
| CCOC(=O)c1noc2c1C[C@@]1(C)[C@@H](CC[C@]3(C)[C@@H]1CC=C1[C@@H]4CC(C)(C)CC[C@]4(C(=O)OCc4ccccc4)CC[C@]13C)[C@]2(C)COC(=O)[C@H](CCC(=O)OC)NC(=O)OC(C)(C)C | 55.4 | 60 | Non-toxic |
| CCOC(=O)c1noc2c1C[C@@]1(C)[C@@H](CC[C@]3(C)[C@@H]1CC=C1[C@@H]4CC(C)(C)CC[C@]4(C(=O)OCc4ccccc4)CC[C@]13C)[C@]2(C)COC(=O)CCC(=O)N[C@H](CCSC)C(=O)OC | 44.6 | 52.2 | Non-toxic |
